In ChEMBL document CHEMBL3272206, “Importance of the aromatic ring in adrenergic amines. 2. Synthesis and adrenergic activity of some nonaromatic six- and eight-membered ring analogs of beta-phenylethanolamine” (J Med Chem, 1976):
Activity calls are given as the source filed them. The calls are words filed in the database; no cut-off is given here.

B1: Phenylethanolamine N-methyltransferase (Bos taurus), P10938 (protein)
chain: MSGTDRSQAAGAVPDSDPGLAAVSSAYQRFEPRAYLRNNYAPPRGDLSCPDGVGPWKLRCLAQTFATGEVSGRTLIDIGSGPTIYQLLSACAHFEDITMTDFLEVNRQELRLWLREEPGAFDWSVYSQHVCLIEGKGESWQEKECQLRARVKRILPIDVHRPQPLGAGGLAPLPADALVSAFCLEAVSPDLASFQRALDHITTLLRPGGHLLLIGALEESWYLAGEARLAVVPVREEEVREALVRTATRCGICARTPMPAHLQTGVDDVKGIFFTRAQKKVGV

Assays:
[1] = species on record: Rattus norvegicus; assay: Adrenergic activity in albino Sprague-Dawley rat vas deferens assessed as contractile response at 0.3 mM measured after 1 to 5 mins; assay type: functional, tissue-based
[2] = species on record: Rattus norvegicus; assay: Adrenergic activity in reserpine-pretreated albino Sprague-Dawley rat vas deferens assessed as contractile response; assay type: functional, tissue-based
[3] = system: Vas deferens; assay: Adrenergic activity in reserpine-pretreated albino Sprague-Dawley rat vas deferens assessed as potentiation of norepinephrine-induced contractile response at 30 uM; assay type: functional, tissue-based
[4] = substrate: NCC(O)/C1=C/CC/C=C\CC1; assay: (§1) Activity at PNMT in bovine adrenal medulla using DL-beta-phenylethanolamine and SAM-14CH3 as substrate by Michaelis-Menten analysis; conditions: Bos taurus
[5] = substrate: NCC(O)C1=C/C=C\C=C/C=C\1; assay: as §1; conditions: Bos taurus
[6] = substrate: NCC(O)C1=C/CCCC/C=C\1; assay: as §1; conditions: Bos taurus
[7] = substrate: NCC(O)C1CC=CCC1; assay: as §1; conditions: Bos taurus
[8] = substrate: NCC(O)C1CCCCC1; assay: as §1; conditions: Bos taurus
[9] = substrate: NCC(O)C1CCCCCCC1; assay: as §1; conditions: Bos taurus
[10] = substrate: NCC(O)c1ccccc1; assay: as §1; conditions: Bos taurus
[11] = substrate: NCC(O)/C1=C/CC/C=C\CC1; assay: (§2) Activity at PNMT in bovine adrenal medulla using DL-beta-phenylethanolamine and SAM-14CH3 as substrate measured per mg of protein by Michaelis-Menten analysis; conditions: Bos taurus
[12] = substrate: NCC(O)C1=C/C=C\C=C/C=C\1; assay: as §2; conditions: Bos taurus
[13] = substrate: NCC(O)C1=C/CCCC/C=C\1; assay: as §2; conditions: Bos taurus
[14] = substrate: NCC(O)C1CC=CCC1; assay: as §2; conditions: Bos taurus
[15] = substrate: NCC(O)C1CCCCC1; assay: as §2; conditions: Bos taurus
[16] = substrate: NCC(O)C1CCCCCCC1; assay: as §2; conditions: Bos taurus
[17] = substrate: NCC(O)c1ccccc1; assay: as §2; conditions: Bos taurus

| Molecule | Activity [1] | Activity [2] | Activity [3] | other results |
| --- | --- | --- | --- | --- |
| NCC(O)C1=C/CCCC/C=C\1 (stereo not given) | Active | inactive | Active | – |
| NCC(O)C1CCCCCCC1 (stereo not given) | Active | inactive | Active | – |
| NCC(O)C1CCCCC1 (stereo not given) | Active | inactive | Active | – |
| NCC(O)C1/C=C\CCCCC1 (stereo not given) | Active | inactive | Active | – |
| C[C@@H](N)[C@@H](O)c1ccccc1 | Active | inactive | Active | – |
| NCC(O)C1CC=CCC1 (stereo not given) | Active | inactive | Active | – |
| NCC(O)C1=C/C=C\C=C/C=C\1 (stereo not given) | Active | inactive | Active | – |
| NCC(O)/C1=C/CC/C=C\CC1 (stereo not given) | Active | inactive | – | – |
| NCC(O)c1ccccc1 (stereo not given) | Active | inactive | Active | – |
| B1 | – | – | – | Km [4]: 155 µM; Km [5]: 430 µM; Km [6]: 128 µM; Km [7]: 57 µM; Km [8]: 40 µM; Km [9]: 26 µM; Km [10]: 136 µM; Vmax [11]: 2.75 nmol/min; Vmax [12]: 1.73 nmol/min; Vmax [13]: 2.61 nmol/min; Vmax [14]: 1.37 nmol/min; Vmax [15]: 0.99 nmol/min; Vmax [16]: 0.96 nmol/min; Vmax [17]: 2.1 nmol/min |
